In ChEMBL document CHEMBL3400060, “Nucleobase modified neamines with a lysine as a linker, their inhibition specificity for TAR-Tat derived from HIV-1” (Bioorg Med Chem, 2015):
pKd: −log10 of the molar value.

Experiments:
[1] = Binding affinity to HIV-1 RRE RNA by fluorescence anisotropy; set-up: species or system Human immunodeficiency virus 1
Nucleic Acid = experiment: Binding affinity to HIV-1 TAR RNA by FRET assay; assay type: nucleic-acid assay, Human immunodeficiency virus 1

SMILES | pKd [1] | pKd (Nucleic Acid)
NC[C@H]1O[C@H](O[C@H]2[C@H](O)[C@@H](O)[C@H](N)C[C@@H]2N)[C@H](N)[C@@H](O)[C@@H]1O [NEAMINE] | 5.27 | 
Nc1nc2c(ncn2CC(=O)NCCCC[C@H](N)C(=O)NC[C@H]2O[C@H](O[C@H]3[C@H](O)[C@@H](O)[C@H](N)C[C@@H]3N)[C@H](N)[C@@H](O)[C@@H]2O)c(=O)[nH]1 | 6.28 | 6.62
Cc1cn(CC(=O)NCCCC[C@H](N)C(=O)NC[C@H]2O[C@H](O[C@H]3[C@H](O)[C@@H](O)[C@H](N)C[C@@H]3N)[C@H](N)[C@@H](O)[C@@H]2O)c(=O)[nH]c1=O | 6.24 | 6.07
Nc1ncnc2c1ncn2CC(=O)NCCCC[C@H](N)C(=O)NC[C@H]1O[C@H](O[C@H]2[C@H](O)[C@@H](O)[C@H](N)C[C@@H]2N)[C@H](N)[C@@H](O)[C@@H]1O | 6.24 | 6.13
NCCCC[C@H](N)C(=O)NC[C@H]1O[C@H](O[C@H]2[C@H](O)[C@@H](O)[C@H](N)C[C@@H]2N)[C@H](N)[C@@H](O)[C@@H]1O | 5.24 | 
Nc1ccn(CC(=O)NCCCC[C@H](N)C(=O)NC[C@H]2O[C@H](O[C@H]3[C@H](O)[C@@H](O)[C@H](N)C[C@@H]3N)[C@H](N)[C@@H](O)[C@@H]2O)c(=O)n1 | 6.19 | 5.85
